Like-named read-outs stand apart in the source and are kept apart here.

We go through one molecule from paper PMC8895377, “In Vivo Targeting Replication Protein A for Cancer Therapy” (Frontiers in Oncology, 2022).

Data set [1] concerns H460 cells. Nature of the data set: Caspase 3/7 apoptosis assay. Type of data set: cell-based, human. The conditions noted are these: H460, 24 h. On the procedure:
Apoptosis induction was determined by activation of Caspases 3 and 7 using the CellEvent™ Caspase-3/7 Green Detection Reagent (Invitrogen). H460 cells were plated at 5 × 10^3 cells/well in black 96-well plates with clear bottoms (Costar) and incubated for 24 h prior to treatments. Cells were treated with the indicated concentration of RPAi or cisplatin for 24 h. The vehicle (DMSO) concentration was held constant at 1% for RPAi treatments. For caspase 3/7 detection, medium was removed and replaced with phosphate buffered saline (PBS) containing 5% fetal bovine serum (FBS) and 2 µM CellEvent™ Caspase-3/7 Green Detection Reagent. Cells were incubated at 37°C/5% CO2 for 1 h, and fluorescence intensity was measured in a BioTek Synergy H1 plate reader (excitation/emission 485/528). Images were captured with an Evos FL2 Auto microscope (Invitrogen) using a 10× objective.
Figure 3 The 329 induction of apoptotic cell death. (A) Analysis of caspase 3/7 activity in H460 cells following 24 h of treatment with 1% DMSO or the indicated concentrations of 329. Fluorescence images were captured as described in the Materials and Methods. (B) Quantification of caspase 3/7 activity. Fluorescence was measured in 96-well plates using a Biotek Synergy H1 plate reader following 24-h incubation with the indicated drugs and concentrations.

Data set [2] relates to H460 cells. The data set is described as follows: DNA fiber analysis of replication fork dynamics. Type of data set: cell-based, human. On the procedure: Analysis of DNA replication intermediates was performed as previously described with minor modifications ([11], [12]). H460 cells were seeded in 6-well plates at a density of 2 × 10^5 cells. […] After harvesting, the cells were resuspended in PBS at a concentration of 1,000,000 cells/ml, and 2 µl of the cell suspension was mixed with 8 µl of lysis buffer (200 mM Tris-HCl pH 7.5, 50 mM EDTA, 0.5% SDS) on a Superfrost Plus microscope slide (Fisher Scientific). After 6 min of incubation, the slides were tilted at a 45-degree angle to allow cell lysates to slowly run down the slide. After air-drying, the slides were fixed in methanol:acetic acid (3:1) and stored at 4°C. DNA fibers were denatured with 2.5N HCl for 1 h, washed with PBS, and blocked with 5% BSA in PBS-T (PBS + 0.1% Tween-20) for 1 h. […] Excess antibodies were removed by washing with PBS-T 3 times. After air-drying, the slides were mounted onto a coverslip with mounting medium. Fiber tracts were imaged with a Nikon epifluorescence microscope using a 40× oil immersion objective, and 100 fibers for each group were analyzed in ImageJ where the ratios of CldU : IdU were compared using pixel length. Data were analyzed by ANOVA with Bonferroni test for multiple comparisons.
(A) Schematic depiction of experimental design. DNA was pulse-labeled with IdU for 20 min. After IdU removal, replication forks were stalled by the addition of HU or left to replicate with vehicle treatment. HU was removed, and replication was labeled with CldU. Following CldU, cells were treated with the DDRi or vehicle. […] Data presented are combined from three individual experiments (100 fibers analyzed per experiment; 300 fibers total). Red bar indicates the median value of CldU/IdU.

Data set [3] in a line: Intrinsic clearance and half-life in mouse microsomes. Type of data set: in vitro ADME. The text has this:
Toward the goal to identify efficacious and safe RPAi 329 treatment regimens, we conducted single-agent screening in two lung cancer cell line-derived xenograft models. […] Having optimized cellular uptake and solubility via the addition of the propyl morpholino in 329 and 2004, we sought to determine how these modifications impact in vivo anticancer activity using two NSCLC models, A549 adenocarcinoma and H460 large cell carcinoma. […] Analyses of intrinsic clearance and half-life were conducted in mouse and rat microsomes ( Table 1 ). […] These values are less than the rate of 48, which is considered rapid clearance. In rat microsomes, rates of ~64 were obtained for 329 and are less than the rapid rate of 71.

The test system of data set [4] is H460 NSCLC tumor xenografts. The data set is described as follows: H460 NSCLC xenograft efficacy. It counts as in vivo, mice. The conditions noted are these: 20 mg/kg IP daily for 5 days, 2 days off, repeated 3 times, optimized formulation. From the text: To assess anticancer efficacy, the hind flanks of 60 8–10-week-old Nod SCID gamma (NSG) mice were implanted with the indicated cells (~2 × 10^6) in Matrigel. Tumor volumes were monitored by electronic caliper measurement [tumor volumes = length × (perpendicular width)^2 × 0.5]. NSG studies were approved by the Institutional Animal Care and Use Committee at Indiana University School of Medicine. Male NSG (NOD‐scid/IL2Rg^null) mice (In Vivo Therapeutics Core Facility, IU Simon Comprehensive Cancer Center, Indianapolis, IN, USA) were used and housed in a pathogen‐free facility at IUSM LARC. Mice with tumors of approximately 100 mm^3 were randomized into individual treatment arms. The indicated RPAi was formulated and administered via intraperitoneal injection (IP) at the indicated times. Tumor volumes were monitored biweekly as indicated, and the results are presented as the average tumor volume ± standard error of the mean for each group. […]
Figure 8 In vivo analysis of anticancer activity of 329. (A) Anticancer activity was assessed in human H460 NCSLC tumor xenografts in NOD/SCID mice. Mice were implanted subcutaneously on day 1 with H460 NSCLC cells, tumors were measured by calipers, and mice assigned randomly to treatment arms. […] (C) Tumor weight from A549 cells was determined on day 32. […]

Details of data set [5]: method as in PMID 32550990. The note with it: cited from earlier work.

One may read the microsomal CLint as a measure of how fast metabolising enzymes remove a compound, apart from limits set by blood flow. In the case of `CCOc1ccc2cc(C3CC(c4ccc(I)cc4)=NN3C(=O)CCCC(=O)NCCCN3CCOCC3)c(Cl)nc2c1` (centres unmarked) [compound 329], the “activation of caspases 3 and 7” value with H460 cells [1] is recorded as “induces cell death via a classical apoptotic pathway”. The “CldU/IdU signal after HU” value in the data set on H460 cells [2] (H460, HU 2.5 mM then 329 50 µM or VE-822 2 µM) was “significant decrease in CldU/IdU signal”. For the same molecule, the “CldU/IdU, inhibitor alone” value with H460 cells [2] (H460, without HU, 329 50 µM, VE-822 2 µM, 2 h) was “minimal effects”. This molecule came in with a microsomal CLint in data set [3] (Mouse microsomes) of 31.7 µL/min/mg. Further, the half-life in data set [3] (Mouse microsomes, read-out: t1/2) is 43.9 min; in data set [3] (mouse, rat, microsomes, in mice and rats, read-out: half-lives), 20 to 40 min. Further, the tumor volume result in data set [4] is recorded as “a decrease in tumor volume was observed starting at day 17”. Further, the “solubility, cellular uptake, and physicochemical properties” value in data set [5] is reported as “excellent”.
